{
  "source": "the NIST ThermoML archive (doi:10.1021/je500083n)",
  "test": "xn = mol fraction of the nth substance listed",
  "conditions": "Gas, Vibrating wire viscometry",
  "note": "± gives the expanded uncertainty stated by the source.",
  "data": [
    {"smiles": "C", "note": "[methane] + CCC", "values": [
      {"measurement": "viscosity", "setting": "280.16 K, 610 kPa, x2 = 0.0548", "result": "0.01039 ± 0.00017", "unit": "mPa·s"},
      {"measurement": "viscosity", "setting": "280.16 K, 1550 kPa, x2 = 0.0548", "result": "0.01051 ± 0.00013", "unit": "mPa·s"},
      {"measurement": "viscosity", "setting": "280.17 K, 3150 kPa, x2 = 0.0548", "result": "0.01083 ± 0.00016", "unit": "mPa·s"},
      {"measurement": "viscosity", "setting": "280.17 K, 4970 kPa, x2 = 0.0548", "result": "0.01143 ± 0.00019", "unit": "mPa·s"},
      {"measurement": "viscosity", "setting": "280.18 K, 5880 kPa, x2 = 0.0548", "result": "0.01179 ± 0.00016", "unit": "mPa·s"},
      {"measurement": "viscosity", "setting": "280.2 K, 6560 kPa, x2 = 0.0548", "result": "0.01211 ± 0.00016", "unit": "mPa·s"},
      {"measurement": "viscosity", "setting": "280.21 K, 6970 kPa, x2 = 0.0548", "result": "0.0123 ± 0.00015", "unit": "mPa·s"},
      {"measurement": "viscosity", "setting": "298.18 K, 870 kPa, x2 = 0.0548", "result": "0.01083 ± 0.00018", "unit": "mPa·s"},
      {"measurement": "viscosity", "setting": "298.18 K, 1450 kPa, x2 = 0.0548", "result": "0.01096 ± 0.00019", "unit": "mPa·s"},
      {"measurement": "viscosity", "setting": "298.19 K, 4110 kPa, x2 = 0.0548", "result": "0.01163 ± 0.00015", "unit": "mPa·s"},
      {"measurement": "viscosity", "setting": "298.2 K, 2650 kPa, x2 = 0.0548", "result": "0.01124 ± 0.00024", "unit": "mPa·s"},
      {"measurement": "viscosity", "setting": "298.2 K, 5430 kPa, x2 = 0.0548", "result": "0.01211 ± 0.00016", "unit": "mPa·s"},
      {"measurement": "viscosity", "setting": "298.22 K, 6340 kPa, x2 = 0.0548", "result": "0.01244 ± 0.00016", "unit": "mPa·s"},
      {"measurement": "viscosity", "setting": "298.22 K, 6700 kPa, x2 = 0.0548", "result": "0.01259 ± 0.00016", "unit": "mPa·s"}
    ]},
    {"smiles": "C", "note": "[methane] + O=C=O", "values": [
      {"measurement": "viscosity", "setting": "280.17 K, 6410 kPa, x1 = 0.57", "result": "0.01457 ± 5e-05", "unit": "mPa·s"},
      {"measurement": "viscosity", "setting": "280.2 K, 5490 kPa, x1 = 0.57", "result": "0.01408 ± 5.6e-05", "unit": "mPa·s"},
      {"measurement": "viscosity", "setting": "280.22 K, 4480 kPa, x1 = 0.57", "result": "0.01364 ± 0.00011", "unit": "mPa·s"},
      {"measurement": "viscosity", "setting": "280.24 K, 3500 kPa, x1 = 0.57", "result": "0.01338 ± 0.00018", "unit": "mPa·s"},
      {"measurement": "viscosity", "setting": "280.31 K, 2510 kPa, x1 = 0.57", "result": "0.0131 ± 0.00032", "unit": "mPa·s"},
      {"measurement": "viscosity", "setting": "280.32 K, 1510 kPa, x1 = 0.57", "result": "0.01303 ± 0.00023", "unit": "mPa·s"},
      {"measurement": "viscosity", "setting": "303.18 K, 5440 kPa, x1 = 0.57", "result": "0.01477 ± 8.4e-05", "unit": "mPa·s"},
      {"measurement": "viscosity", "setting": "303.18 K, 6330 kPa, x1 = 0.57", "result": "0.01523 ± 0.0001", "unit": "mPa·s"},
      {"measurement": "viscosity", "setting": "303.19 K, 3500 kPa, x1 = 0.57", "result": "0.01411 ± 6.8e-05", "unit": "mPa·s"},
      {"measurement": "viscosity", "setting": "303.19 K, 4500 kPa, x1 = 0.57", "result": "0.0144 ± 9.2e-05", "unit": "mPa·s"},
      {"measurement": "viscosity", "setting": "303.2 K, 1500 kPa, x1 = 0.57", "result": "0.01381 ± 0.00012", "unit": "mPa·s"},
      {"measurement": "viscosity", "setting": "303.2 K, 2500 kPa, x1 = 0.57", "result": "0.01387 ± 0.00014", "unit": "mPa·s"},
      {"measurement": "viscosity", "setting": "328.13 K, 6450 kPa, x1 = 0.57", "result": "0.01573 ± 0.0001", "unit": "mPa·s"},
      {"measurement": "viscosity", "setting": "328.14 K, 3490 kPa, x1 = 0.57", "result": "0.01477 ± 6.8e-05", "unit": "mPa·s"},
      {"measurement": "viscosity", "setting": "328.14 K, 4490 kPa, x1 = 0.57", "result": "0.01504 ± 9.4e-05", "unit": "mPa·s"},
      {"measurement": "viscosity", "setting": "328.14 K, 5500 kPa, x1 = 0.57", "result": "0.01538 ± 8.4e-05", "unit": "mPa·s"},
      {"measurement": "viscosity", "setting": "328.15 K, 2500 kPa, x1 = 0.57", "result": "0.01453 ± 0.00014", "unit": "mPa·s"},
      {"measurement": "viscosity", "setting": "328.16 K, 1510 kPa, x1 = 0.57", "result": "0.01447 ± 0.00012", "unit": "mPa·s"}
    ]}
  ]
}
